Among the data in patent US20240262795A1, “PYRAZINE COMPOUNDS AS INHIBITORS OF FLT3” (Biomea Fusion, Inc., priority 2021, published 2024) are GI50 and IC50 values, retold here.

Assay [1] has as its target T1, Ba/F3 cell lines stably expressing human FLT3-ITD (Homo sapiens, UniProt P36888, cells depend on it, form not given).
T1 sequence (P36888 1-993): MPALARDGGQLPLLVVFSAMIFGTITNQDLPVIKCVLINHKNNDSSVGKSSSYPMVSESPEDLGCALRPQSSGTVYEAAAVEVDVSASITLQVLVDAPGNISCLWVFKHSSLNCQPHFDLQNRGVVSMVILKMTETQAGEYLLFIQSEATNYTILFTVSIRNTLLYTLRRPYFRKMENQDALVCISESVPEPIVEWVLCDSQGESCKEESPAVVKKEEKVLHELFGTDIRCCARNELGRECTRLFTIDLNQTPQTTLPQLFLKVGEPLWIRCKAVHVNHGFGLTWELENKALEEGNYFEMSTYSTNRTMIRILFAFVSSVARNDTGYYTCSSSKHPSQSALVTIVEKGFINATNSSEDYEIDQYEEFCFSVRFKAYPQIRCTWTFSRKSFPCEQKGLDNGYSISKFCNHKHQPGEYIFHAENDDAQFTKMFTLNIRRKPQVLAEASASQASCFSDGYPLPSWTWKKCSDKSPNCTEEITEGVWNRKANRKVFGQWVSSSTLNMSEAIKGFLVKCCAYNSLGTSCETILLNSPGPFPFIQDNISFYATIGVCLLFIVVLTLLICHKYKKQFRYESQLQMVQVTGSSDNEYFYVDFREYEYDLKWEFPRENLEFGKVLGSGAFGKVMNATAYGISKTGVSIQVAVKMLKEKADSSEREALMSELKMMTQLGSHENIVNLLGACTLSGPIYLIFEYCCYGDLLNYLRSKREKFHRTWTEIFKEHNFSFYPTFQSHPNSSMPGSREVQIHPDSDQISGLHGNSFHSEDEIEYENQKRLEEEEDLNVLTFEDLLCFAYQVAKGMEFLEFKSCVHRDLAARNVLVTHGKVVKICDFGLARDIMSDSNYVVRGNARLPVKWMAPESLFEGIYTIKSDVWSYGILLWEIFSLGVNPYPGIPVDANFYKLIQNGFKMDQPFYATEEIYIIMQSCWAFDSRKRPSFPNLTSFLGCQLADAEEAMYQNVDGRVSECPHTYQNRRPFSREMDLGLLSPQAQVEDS
Briefly: FLT3 mutant assay, cell viability, Ba/F3-FLT3-ITD. The format is cell-based, mouse. The settings on record: IC50 (3 days), CellTiter-Glo; read-out: Ba/F3-FLT3-ITD Relative IC50. How it is done:
Activity of compounds on FLT3 activating mutations were assessed using Ba/F3 cell lines (mouse pro-B cell line) stably expressing human FLT3-ITD, FLT3-ITD-D835Y or FLT3-ITD-F691L. […] The supernatant collected were concentrated with PEG8000 and used to infect Ba/F3 cells at 1-5 MOI in serum-free media with polybrene. Infected Ba/F3 cells were selected in presence of puromycin, and surviving cells verified by sequencing and/or protein detection assay. Constitutive expression of the activating kinase transforms the Ba/F3 cells into IL-3-independent growth allowing them to be cultured in the absence of IL-3. […] For use in compound testing, cells in exponential growth phase were harvested, counted, and resuspended at the required cell density. Cell viability assays were performed in 96-well assay plates and 90 μL of cell suspension seeded per well. Serial dilutions of the test compounds and assay controls and were freshly prepared for the assay. Nine-point 3× serial dilutions were prepared in 100% DMSO (400× stock) and subsequently diluted in cell culture media to obtain 10× stocks. Ten microliters of the 10× stock serial dilutions were added to the appropriate wells (triplicate wells per condition) in the assay plate. […] Assay plates were incubated for 3 days in at 37° C. in a humidified incubator with 5% CO2.
Inhibition rate (IR) of the tested compounds was determined by the following formula: IR (%)=(1−(RLU compound−RLU blank)/(RLU control−RLU blank))*100%. The inhibitions of different dose of compound were calculated in Excel file, and the dose responses were analysed using GraphPad Prism to evaluate related parameters, such as Bottom, Top and IC50. For the IC50 analysis by GraphPad Prism, the equation below was used to fit curve: Y=Bottom+(Top−Bottom)/(1+10^((LogIC50−X)*HillSlope))
For orientation: In ATP-based viability assays light output follows the ATP content of the culture.

Assay [2] concerns MOLM-13. As to the kind of experiment: Proliferation inhibition, CellTiter-Glo, MOLM-13. The format is cell-based, human. The settings on record: Homo sapiens, 96 h; MOLM-13 cells, IC50 (4 days), CellTiter-Glo; read-out: MOLM-13 IC50. The method, boiled down: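 About 10,000 cells per well in RPMI-1640 with 10% FBS. Compounds added 2 h after seeding at eight concentrations in duplicate (0.2% DMSO as 100% proliferation), then incubated ~96 h at 37° C, 5% CO2. ATP measured by CellTiter-Glo luminescence; IC50 from four-parameter logistic fit.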

Usually IC50 stands for the midpoint of a concentration-inhibition curve. For the molecule `CCc1nc(C(N)=O)c(Nc2cccc(CCNC(=O)[C@H](C)N(C)C(=O)/C=C/CN(C)C)c2)nc1N(C)C(C)C` [Compound 204, (S,E)-3-((3-(2-(2-(4-(dimethylamino)-N-methylbut-2-enamido)propanamido)ethyl)phenyl)amino)-6-ethyl-5-(isopropyl(methyl)amino)pyrazine-2-carboxamide], the GI50 in assay [1] fell in the range of 1 to 10 nM. For the same molecule, the IC50 in assay [2] is < 1 nM.
With `CCc1nc(C(N)=O)c(Nc2cccc(CCNC(=O)[C@H](C)N(C)C(=O)/C=C/CN(C)C)c2)nc1NC(C)C` [Compound 205, (S,E)-3-((3-(2-(2-(4-(dimethylamino)-N-methylbut-2-enamido)propanamido)ethyl)phenyl)amino)-6-ethyl-5-(isopropylamino)pyrazine-2-carboxamide], the GI50 in assay [1] is < 1 nM. For the same molecule, the IC50 in assay [2] is < 1 nM.
For the molecule `CCc1nc(C(N)=O)c(Nc2cccc(CCNC(=O)CN(C)C(=O)/C=C/CN(C)C)c2)nc1C1CC1` [Compound 219, (E)-5-cyclopropyl-3-((3-(2-(2-(4-(dimethylamino)-N-methylbut-2-enamido)acetamido)ethyl)phenyl)amino)-6-ethylpyrazine-2-carboxamide], the GI50 in assay [1] was 1 to 10 nM. In addition, the IC50 in assay [2] was < 1 nM.
Regarding `Cc1nc(C(N)=O)c(Nc2cccc(CCNC(=O)[C@H](C)N(C)C(=O)/C=C/CN(C)C)c2)nc1N(C)C(C)C` [Compound 232, (S, E)-3-((3-(2-(2-(4-(dimethylamino)-N-methylbut-2-enamido)propanamido)ethyl)phenyl)amino)-5-(isopropyl (methyl)amino)-6-methylpyrazine-2-carboxamide], the GI50 in assay [1] was in the range of 1 to 10 nM. In addition, in assay [2], the concentration for half-maximal inhibition (IC50) was in the range of 1 to 10 nM.
`Cc1nc(C(N)=O)c(Nc2cccc(CCNC(=O)CN(C)C(=O)/C=C/CN(C)C)c2)nc1N(C)C(C)C` [Compound 250, (E)-3-((3-(2-(2-(4-(dimethylamino)-N-methylbut-2-enamido)acetamido)ethyl)phenyl)amino)-5-(isopropyl(methyl)amino)-6-methylpyrazine-2-carboxamide]: the GI50 in assay [1] is 1 to 10 nM. The IC50 in assay [2] was in the range of 1 to 10 nM.
On to `CCc1nc(C(N)=O)c(Nc2cccc(CCNC(=O)CN(C)C(=O)/C=C/CN(C)C)c2)nc1N(C)CC` [Compound 252, (E)-3-((3-(2-(2-(4-(dimethylamino)-N-methylbut-2-enamido)acetamido)ethyl)phenyl)amino)-6-ethyl-5-(ethyl (methyl)amino) pyrazine-2-carboxamide], for which the GI50 in assay [1] is < 1 nM. Further, the IC50 in assay [2] is < 1 nM.
For the molecule `CCc1nc(C(N)=O)c(Nc2cccc(CCNC(=O)[C@H](C)N(C)C(=O)/C=C/CNC)c2)nc1N(C)C(C)C` [Compound 307, (S,E)-6-ethyl-5-(isopropyl(methyl)amino)-3-((3-(2-(2-(N-methyl-4-(methylamino)but-2-enamido)propanamido)ethyl)phenyl)amino)pyrazine-2-carboxamide], the GI50 in assay [1] lay in the range of 1 to 10 nM. For the same molecule, in assay [2], the IC50 is < 1 nM.
Turning to `CCc1nc(C(N)=O)c(Nc2ccnc(CCNC(=O)[C@H](C)N(C)C(=O)/C=C/CN(C)C)c2)nc1C1CC1` [Compound 310, (S,E)-5-cyclopropyl-3-((2-(2-(2-(4-(dimethylamino)-N-methylbut-2-enamido)propanamido)ethyl)pyridin-4-yl)amino)-6-ethylpyrazine-2-carboxamide], the GI50 in assay [1] was 1 to 10 nM. Also, the IC50 in assay [2] was 1 to 10 nM.
Turning to `CCc1nc(C(N)=O)c(Nc2cccc([C@@H](C)CNC(=O)CN(C)C(=O)/C=C/CN(C)C)c2)nc1C1CC1` [Compound 504, (R,E)-5-cyclopropyl-3-((3-(1-(2-(4-(dimethylamino)-N-methylbut-2-enamido)acetamido)propan-2-yl)phenyl)amino)-6-ethylpyrazine-2-carboxamide], the GI50 in assay [1] lay in the range of 1 to 10 nM. Besides, the IC50 in assay [2] is < 1 nM.
`CCc1nc(C(N)=O)c(Nc2cccc([C@@H](C)CNC(=O)CN(C)C(=O)/C=C/CN3CCC3)c2)nc1C1CC1` [Compound 506, (R,E)-3-((3-(1-(2-(4-(azetidin-1-yl)-N-methylbut-2-enamido)acetamido)propan-2-yl)phenyl)amino)-5-cyclopropyl-6-ethylpyrazine-2-carboxamide]: the GI50 in assay [1] fell in the range of 1 to 10 nM. Besides, the IC50 in assay [2] is < 1 nM.
For the molecule `CCCc1nc(Nc2cccc([C@@H](C)CNC(=O)CN(C)C(=O)/C=C/CN3CCC3)c2)c(C(N)=O)nc1CC` [Compound 507, (R,E)-3-((3-(1-(2-(4-(azetidin-1-yl)-N-methylbut-2-enamido)acetamido)propan-2-yl)phenyl)amino)-6-ethyl-5-propylpyrazine-2-carboxamide], the GI50 in assay [1] fell in the range of 1 to 10 nM. For the same molecule, the IC50 in assay [2] was < 1 nM.
For `CCc1nc(Nc2cccc([C@@H](C)CNC(=O)CN(C)C(=O)/C=C/CN3CCC3)c2)c(C(N)=O)nc1CC` [Compound 508, (R, E)-3-((3-(1-(2-(4-(azetidin-1-yl)-N-methylbut-2-enamido)acetamido)propan-2-yl)phenyl)amino)-5,6-diethylpyrazine-2-carboxamide] the same measures were 1 to 10 nM and > 500 nM.
For the molecule `CCc1nc(C(N)=O)c(Nc2cc(F)cc(CCNC(=O)CN(C)C(=O)/C=C/CN3CCC3)c2)nc1C1CC1` [Compound 516, (E)-3-((3-(2-(2-(4-(azetidin-1-yl)-N-methylbut-2-enamido)acetamido)ethyl)-5-fluorophenyl)amino)-5-cyclopropyl-6-ethylpyrazine-2-carboxamide], the GI50 in assay [1] was in the range of 1 to 10 nM. For the same molecule, in assay [2], the IC50 fell in the range of 1 to 10 nM.
In the case of `CCc1nc(C(N)=O)c(Nc2cccc(CCNC(=O)CN(C)C(=O)/C=C/CN3CCC3)c2)nc1N(C)CC` [Compound 516A, (E)-3-((3-(2-(2-(4-(azetidin-1-yl)-N-methylbut-2-enamido)acetamido)ethyl)phenyl)amino)-6-ethyl-5-(ethyl(methyl)amino) pyrazine-2-carboxamide], in assay [1], the GI50 fell in the range of 1 to 10 nM. Besides, the IC50 in assay [2] was < 1 nM.
In the case of `CCc1nc(C(N)=O)c(Nc2cccc([C@@H](C)CNC(=O)CN(C)C(=O)/C=C/CN3CCC3)c2)nc1N(C)CC` [Compound 518, (R,E)-3-((3-(1-(2-(4-(azetidin-1-yl)-N-methylbut-2-enamido)acetamido)propan-2-yl)phenyl)amino)-6-ethyl-5-(ethyl(methyl)amino)pyrazine-2-carboxamide], the GI50 in assay [1] lay in the range of 1 to 10 nM. In addition, the IC50 in assay [2] is < 1 nM.
On to `CCOc1nc(Nc2cccc(CCNC(=O)CN(C)C(=O)/C=C/CN3CCC3)c2)c(C(N)=O)nc1CC` [Compound 602, (E)-3-((3-(2-(2-(4-(azetidin-1-yl)-N-methylbut-2-enamido)acetamido)ethyl)phenyl)amino)-5-ethoxy-6-ethylpyrazine-2-carboxamide], for which, in assay [1], the GI50 is 1 to 10 nM. In addition, the IC50 in assay [2] was 1 to 10 nM.
With `CCc1nc(C(N)=O)c(Nc2ccc(N3CCC(N4CCN(C)CC4)CC3)c(OC)c2)nc1NC1CCOCC1` [Gilteritinib, gilteritinib, reference compound], the IC50 in assay [2] was 1 to 10 nM.
